Like-named read-outs stand apart in the source and are kept apart here.
Experiments:
INS-1 cells [1] = test: Cell viability assay: protection of INS-1 cells from tunicamycin (Tm)-induced loss of viability (CellTiter-Glo, intracellular ATP); assay type: cell-based, rat; details: for Emax / EC50: Rattus norvegicus; for Emax: % rescue from Tm (0.15 μg/mL)-induced reduction of INS-1 cell viability (intracellular ATP), Tm alone 0%, DMSO without Tm 100%, 72 h, read-out: Maximum % of Protection; for EC50: INS-1 cell viability, Tm 0.15 μg/mL, ten 2-fold serial titration points, GraphPad Prism
Procedure: INS-1 cells were resuspended in RPMI 1640 medium containing 10% FBS and seeded at 5×10^3 cells/well in a 384-well plate. After overnight 24 h incubation, compounds were added to the wells at the indicated concentration using a pin-transfer robot (PerkinElmer). Tm in RPMI 1640 medium containing 10% FBS was then added at a final concentration of 0.15 μg/mL. After 72 h, the medium was removed and 20 μL of CellTiter-Glo reagent (Promega) was added. Luminescence was measured 10 min later using a Synergy Neo2 plate reader (Biotek).
Hydroxy benzamide (HBA) derivatives were synthesized based on various scaffolds and evaluated for their viability of rat INS-1 β cells in the presence of tunicamycin (Tm), a potent ER stress inducer that inhibits N-linked glycosylation of proteins. The maximum activities and the concentrations that reach half-maximal activity (EC50) of the compounds were evaluated by the degree of increase in viability of INS-1 cells co-treated with the compounds in the presence of Tm compared with Tm treatment alone.

INS-1 cells [2] = details: earlier work; protection of β-cell survival against ER stress; cited from earlier work

Structure (SMILES)	Emax (INS-1 cells [1]; INS1) [%]	EC50 (INS-1 cells [1]; INS1) [µM]	further results
Cc1ccc(C)c(NC(=O)c2nnn(-c3cccc(Cl)c3C)c2C)c1 [Compound 1, 1-(3-chloro-2-methylphenyl)-N-(2,5-dimethylphenyl)-5-methyl-1H-1,2,3-triazole-4-carboxamide, reference compound]	87	2.8	maximal activity (INS-1 cells [2]): 87%
Oc1cccc(-c2ncc(-c3ccc(C(F)(F)F)cc3)[nH]2)c1O [Compound 1a, 3-(5-(4-(Trifluoromethyl)phenyl)-1H-imidazol-2-yl)benzene-1,2-diol]	14	0.26	Toxicity at rising compound concentration (in words) (INS-1 cells [1]; INS-1 cells with Tm): became toxic when the compound concentration arose; β-cell protective activity (in words) (INS-1 cells [1]; INS-1 cells with Tm): some β-cell protective activity at sub-micro molar concentrations
COc1cc(-c2ncc(-c3ccc(C(F)(F)F)cc3)[nH]2)ccc1O [Compound 1b, 2-Methoxy-4-(5-(4-(trifluoromethyl)phenyl)-1H-imidazol-2-yl)phenol]	7	0.26	β-cell protective activity (in words) (INS-1 cells [1]; INS-1 cells with Tm): no improvement
COc1ccc(-c2ncc(-c3ccc(C(F)(F)F)cc3)[nH]2)cc1 [Compound 1c, 2-(4-Methoxyphenyl)-5-(4-(trifluoromethyl)phenyl)-1H-imidazole]	17	0.21	β-cell protective activity (in words) (INS-1 cells [1]; INS-1 cells with Tm): no improvement
COc1ccc(CNc2ncc(-c3ccc(C(F)(F)F)cc3)[nH]2)cc1 [Compound 2a, N-(4-methoxybenzyl)-5-(4-(trifluoromethyl)phenyl)-1H-imidazol-2-amine]	18	0.05	–
COc1ccc(CNc2ncc(-c3ccccc3OC)[nH]2)cc1 [Compound 2b, N-(4-methoxybenzyl)-5-(2-methoxyphenyl)-1H-imidazol-2-amine]	9	0.021	β-cell protective activity (in words) (INS-1 cells [1]; INS-1 cells with Tm): reduced the protecting activity
Cc1c(Cl)cccc1C(=O)NCc1cccc(C(F)(F)F)c1 [Compound 3a, 3-Chloro-2-methyl-N-(3-(trifluoromethyl)benzyl)benzamide]	83	10	–
CCc1ccc(C(=O)NCc2cccc(C(F)(F)F)c2)cc1 [Compound 3b, 4-Ethyl-N-(3-(trifluoromethyl)benzyl)benzamide]	43	4.4	β-cell protective activity (in words) (INS-1 cells [1]; INS-1 cells with Tm): poorer β-cell protective activity
O=C(NCc1cccc(C(F)(F)F)c1)c1cccc(O)c1 [Compound 3c, 3-Hydroxy-N-(3-(trifluoromethyl)benzyl)benzamide]	37	9.9	–
O=C(NCc1cccc(C(F)(F)F)c1)c1ccc(O)c(O)c1 [Compound 3d, 3,4-Dihydroxy-N-(3-(trifluoromethyl)benzyl)benzamide]	51	20.5	–
COc1cc(C(=O)NCc2cccc(C(F)(F)F)c2)ccc1O [Compound 3e, 4-Hydroxy-3-methoxy-N-(3-(trifluoromethyl)benzyl)benzamide]	100	3.1	–
O=C(NCc1ccc(C(F)(F)F)cc1)c1ccc(O)c(O)c1 [Compound 3f, 3,4-Dihydroxy-N-(4-(trifluoromethyl)benzyl)benzamide]	100	2.2	Concentration at which maximal protection is reached (INS-1 cells [1]; text of b115, unit printed as PM, unit of the source corrected): 10 µM
O=C(NCc1ccc(C(F)(F)F)cc1)c1cccc(O)c1O [Compound 3g, 2,3-Dihydroxy-N-(4-(trifluoromethyl)benzyl)benzamide]	100	3.1	–
O=C(NCc1ccc(C(F)(F)F)cc1)c1ccc(O)cc1 [Compound 3h, 4-Hydroxy-N-(4-(trifluoromethyl)benzyl)benzamide]	100	0.27	–
COc1cccc(C(=O)NCc2ccc(C(F)(F)F)cc2)c1 [Compound 3j, 3-Methoxy-N-(4-(trifluoromethyl)benzyl)benzamide]	71	25	–
O=C(NCc1ccc(C(F)(F)F)cc1)c1cccc(OCC2CCCCC2)c1 [Compound 3k, 3-(Cyclohexylmethoxy)-N-(4-(trifluoromethyl)benzyl)benzamide]	100	0.72	–
O=C(NCc1ccc(C(F)(F)F)cc1)c1cccc(OCC2CCNCC2)c1 [Compound 3l, 3-(Piperidin-4-ylmethoxy)-N-(4-(trifluoromethyl)benzyl)benzamide]	81	2.1	–
COc1cccc(COc2cccc(C(=O)NCc3ccc(C(F)(F)F)cc3)c2)c1 [Compound 3m, 3-((3-Methoxybenzyl)oxy)-N-(4-(trifluoromethyl)benzyl)benzamide]	81	4.1	–
O=C(NCc1ccc(C(F)(F)F)cc1)c1cccc(OCc2cccc(C(F)(F)F)c2)c1 [Compound 3n, N-(4-(Trifluoromethyl)benzyl)-3-((3-(trifluoromethyl)benzyl)oxy)benzamide]	58	6.3	β-cell protective activity (in words) (INS-1 cells [1]; INS-1 cells with Tm): markedly diminished activity
CC(C)c1ccc(CNC(=O)c2cccc(O)c2)cc1 [Compound 3o, 3-Hydroxy-N-(4-isopropylbenzyl)benzamide]	82	1.7	–
CN(C)c1ccc(CNC(=O)c2cccc(O)c2)cc1 [Compound 3p, N-(4-(Dimethylamino)benzyl)-3-hydroxybenzamide]	43	7.1	–
O=C(NCc1cccc(O)c1)c1cccc(O)c1 [Compound 3q, 3-Hydroxy-N-(3-hydroxybenzyl)benzamide]	22	18.3	–
COc1ccc(CNC(=O)c2cccc(O)c2)cc1 [Compound 3r, 3-Hydroxy-N-(4-methoxybenzyl)benzamide]	65	21.3	–
COc1cc(CNC(=O)c2cccc(O)c2)ccc1O [Compound 3s, 3-Hydroxy-N-(4-hydroxy-3-methoxybenzyl)benzamide]	57	28.7	–
COc1cc(CNC(=O)c2ccc(O)c(OC)c2)ccc1O [Compound 3t, 4-Hydroxy-N-(4-hydroxy-3-methoxybenzyl)-3-methoxybenzamide]	55	29.1	β-cell protective activity (in words) (INS-1 cells [1]; INS-1 cells with Tm): equally poor β-cell protective activity
O=C(Cc1cccc(O)c1)NCc1ccc(C(F)(F)F)cc1 [Compound 4a, 2-(3-Hydroxyphenyl)-N-(4-(trifluoromethyl)benzyl)acetamide]	–	3.5	Emax (INS-1 cells [1]; INS1, 72 h): 32%
O=C(NCc1ccc(C(F)(F)F)cc1)Nc1cccc(O)c1 [Compound 5a, 1-(3-Hydroxyphenyl)-3-(4-(trifluoromethyl)benzyl)urea]	65	2.6	–
COc1cccc(NC(=O)NCc2ccc(C(F)(F)F)cc2)c1 [Compound 5b, 1-(3-Methoxyphenyl)-3-(4-(trifluoromethyl)benzyl)urea]	94	1.6	–

From US12509429B2, “Hydroxybenzamide derivatives and methods of use in treating diabetes” (THE BOARD OF REGENTS OF THE UNIVERSITY OF OKLAHOMA, priority 2022, dated 2025)
